Biological target: T1, CysI (Pseudomonas aeruginosa, UniProt Q9I2Q7)
T1 construct: full orf with N-terminal hexahistidine tag (pSKcysI-N), E. coli BL21 (DE3) suf++ with pCDF-cysG; IMAC and SEC
T1 sequence (Q9I2Q7 1-552): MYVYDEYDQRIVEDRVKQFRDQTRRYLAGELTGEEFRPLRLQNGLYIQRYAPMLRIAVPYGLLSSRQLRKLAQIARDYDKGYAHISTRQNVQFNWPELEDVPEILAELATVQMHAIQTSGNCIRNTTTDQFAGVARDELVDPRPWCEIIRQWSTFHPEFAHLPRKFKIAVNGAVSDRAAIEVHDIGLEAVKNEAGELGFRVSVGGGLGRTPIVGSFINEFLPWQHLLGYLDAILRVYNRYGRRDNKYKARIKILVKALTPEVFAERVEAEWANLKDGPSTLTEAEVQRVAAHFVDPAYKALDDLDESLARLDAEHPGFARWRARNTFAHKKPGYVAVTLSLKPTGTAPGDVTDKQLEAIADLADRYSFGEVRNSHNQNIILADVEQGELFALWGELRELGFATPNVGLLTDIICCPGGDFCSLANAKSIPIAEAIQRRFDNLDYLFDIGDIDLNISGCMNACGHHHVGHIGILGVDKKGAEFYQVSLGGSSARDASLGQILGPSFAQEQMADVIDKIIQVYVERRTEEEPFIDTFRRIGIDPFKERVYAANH
Test: methyl viologen oxidation at […] nm
Format: biochemical
Settings: anaerobic; methyl viologen as electron donor

## O=S(O)O [hydrogen sulphite]
  methyl viologen oxidation at 605 nm: Potassium nitrite and hydrogen sulphite were used as electron acceptors for NirA and CysI

From paper PMC12688703, “NirA is a Cyanide‐Tolerant Nitrite Reductase Which Protects Pseudomonas aeruginosa From Self‐Poisoning” (Environmental Microbiology Reports, 2025)
